Data: patent EP0973746B1, “SUBSTITUTED 3-CYANO QUINOLINES” (Wyeth Holdings Corporation, priority 1997, dated 1998)
In brackets after ≈: the same amount, converted by molar mass.

Legend:
[1] = system: A431; experiment: Inhibition of cancer cell growth as measured by cell number, A431; format: cell-based, human; conditions: Table 8; for IC50: Homo sapiens, A-431, 48 h, read-out: IC50 A431, cell number, Sulforhodamine B, 48 hours exposure;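 as to all read-outs here: human A431 line, picked because it overexpresses epidermal growth factor receptor (EGFR)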
From the text: (§1) The cell lines were chosen since they overexpressed epidermal growth factor receptor (EGFR) (i.e. A431) or HER2/neu (SKBR3), or had little to no expression of the these receptors (SW620, LOX, MCF7).

[2] = system: SW620; experiment: Inhibition of cancer cell growth as measured by cell number, SW620; format: cell-based, human; conditions: Homo sapiens, SW-620, 48 h, read-out: IC50 SW620, cell number, Sulforhodamine B, 48 hours exposure; Table 8;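 also: SW620 was included as a cell line with little or no EGFR or HER2/neu expression, in contrast to receptor-overexpressing lines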
From the text: as §1

[3] = system: SKBR3; experiment: Inhibition of cancer cell growth as measured by cell number, SKBR3; format: cell-based, human; conditions: Table 8; for IC50: Homo sapiens, SK-BR-3, 48 h, read-out: IC50 SKBR3, cell number, Sulforhodamine B, 48 hours exposure;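 as to all read-outs here: SK-BR-3 cells were selected as a line overexpressing HER2/neu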
From the text: as §1

[4] = target: recombinant human MEK 1 (MAPKK) and recombinant human ERK2 (MAPK); experiment: Mitogen Activated Protein Kinase (MAPK) assay, two component coupled MEK 1 / ERK2; format: biochemical; conditions: separate entries for the same compound = evaluated more than one time;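 also: MEK 1-activated ERK2 phosphorylates MBP or Myc peptide with 33P-ATP, filter capture and scintillation counting, inhibitor preincubated with ERK2 30 min at 0 °C, inhibition relative to uninhibited control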
[5] = system: LOX; experiment: Inhibition of cancer cell growth as measured by cell number, LOX; format: cell-based, human; conditions: Homo sapiens, LOX, 48 h, read-out: IC50 LOX, cell number, Sulforhodamine B, 48 hours exposure; Table 8;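 also: LOX cells served as a line with low or absent EGFR and HER2/neu expression, in contrast to receptor-overexpressing lines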
From the text: as §1

[6] = system: MCF7; experiment: Inhibition of cancer cell growth as measured by cell number, MCF7; format: cell-based, human; conditions: Homo sapiens, MCF7, 48 h, read-out: IC50 MCF7, cell number, Sulforhodamine B, 48 hours exposure; Table 8;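 also: MCF7 was included as a line with little or no EGFR or HER2/neu expression, in contrast to the receptor-overexpressing lines of the panel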
From the text: as §1

[7] = target: T1, His-tagged cytoplasmic domain of EGFR (Homo sapiens, UniProt P00533); experiment: Inhibition of Epidermal Growth Factor Receptor Kinase (EGF-R) using recombinant enzyme; format: biochemical; conditions: recombinant enzyme; RR-SRC peptide; average of the number of tests; read-out: IC50;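 also: radiometric kinase assay measuring radiolabeled phosphate transfer from ATP onto the peptide tyrosine by scintillation counting, control is reaction without compound, background subtracted, IC50 from dose-response curve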
T1 construct: containing the EGFR cDNA encoding amino acids 645 - 1186 preceded by Met-Ala-(His)6; made in house; host or cells: Sf9 cells, recombinant baculovirus vHcEGFR52

[8] = cell number, Sulforhodamine B, 48 hours exposure

T1 sequence (P00533 669-1210): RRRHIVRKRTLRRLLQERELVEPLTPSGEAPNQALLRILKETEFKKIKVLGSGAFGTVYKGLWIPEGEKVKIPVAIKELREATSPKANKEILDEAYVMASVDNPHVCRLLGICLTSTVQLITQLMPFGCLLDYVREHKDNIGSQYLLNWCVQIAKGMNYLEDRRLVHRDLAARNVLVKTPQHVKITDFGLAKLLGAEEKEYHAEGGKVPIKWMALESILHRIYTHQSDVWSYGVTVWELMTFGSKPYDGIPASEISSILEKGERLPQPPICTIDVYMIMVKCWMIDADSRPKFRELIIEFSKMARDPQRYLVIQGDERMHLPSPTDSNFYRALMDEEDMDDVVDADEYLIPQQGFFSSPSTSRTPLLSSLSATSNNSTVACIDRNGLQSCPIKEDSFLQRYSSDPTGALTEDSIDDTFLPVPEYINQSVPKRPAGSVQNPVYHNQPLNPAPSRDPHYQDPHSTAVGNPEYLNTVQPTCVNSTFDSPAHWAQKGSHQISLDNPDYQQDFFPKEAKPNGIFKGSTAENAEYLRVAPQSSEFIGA

Structure (SMILES) | IC50 [1] [µg/mL] | IC50 [2] [µg/mL] | IC50 [3] [µg/mL] | IC50 [4] [nM] | IC50 [5] [µg/mL] | IC50 [6] [µg/mL] | IC50 [7] [nM] | IC50 A431 [1, 8] [µg/mL] | IC50 SKBR3 [3, 8] [µg/mL]
COCC=CC(=O)Nc1ccc2ncc(C#N)c(Nc3cccc(Br)c3)c2c1 [Example 65, 4-Methoxy-but-2-enoic acid [4-(3-bromo-phenylamino)-3-cyano-quinolin-6-yl]-amide] | 48 (≈ 110 µM) | > 100 | 60 (≈ 137 µM) | 40000 | 84 (≈ 192 µM) | 84 (≈ 192 µM) |  |  | 
Cc1cc([N+](=O)[O-])cc2c(Nc3cccc(Br)c3)c(C#N)cnc12 [Example 105, 4-[(3-Bromophenyl)amino]-8-methyl-6-nitro-3-quinolinecarbonitrile] | 0.13 (≈ 0.339 µM) | 0.06 (≈ 0.157 µM) | 1.84 (≈ 4.8 µM) | > 100000 | 0.72 (≈ 1.88 µM) | 2.09 (≈ 5.45 µM) | 1 |  | 
CN(C)Cc1cc([N+](=O)[O-])cc2c(Nc3cccc(Br)c3)c(C#N)cnc12 [Example 108, 4-[(3-Bromophenyl)amino]-8-dimethylaminomethyl-6-nitro-3-quinolinecarbonitrile] | 6.6 (≈ 15.5 µM) | 14.6 (≈ 34.1 µM) | 6.34 (≈ 14.9 µM) | > 100000 | 6.85 (≈ 16.1 µM) | 7.97 (≈ 18.7 µM) |  |  | 
C=CC(=O)Nc1ccc2ncc(C#N)c(Nc3cccc(OC)c3)c2c1 [Example 138, N-{3-Cyano-4-[(3-methoxyphenyl)amino]-6-quinolinyl}-2-propenamide] | 0.44 (≈ 1.28 µM) | 3.52 (≈ 10.2 µM) | < 0.01 |  | 1.12 (≈ 3.25 µM) | 3.51 (≈ 10.2 µM) | 3.5 |  | 
C=CC(=O)Nc1ccc2ncc(C#N)c(Nc3ccc(Br)cc3)c2c1 [Example 151, N-{4-[(4-Bromophenyl)amino]-3-cyano-6-quinolinyl} -2-propenamide] | 0.09 (≈ 0.229 µM) | < 0.01 | 0.07 (≈ 0.178 µM) |  | 0.08 (≈ 0.203 µM) | 0.61 (≈ 1.55 µM) | 500 |  | 
N#Cc1cnc2ccc(N)cc2c1Nc1ccc(F)c(F)c1 [Example 155, 6-Amino-4-[(3.4-difluorophenyl)amino]-3-quinolinecarbonitrile] | 4.3 (≈ 14.5 µM) | 7.55 (≈ 25.5 µM) | 3.28 (≈ 11.1 µM) |  | 6.08 (≈ 20.5 µM) | 7.49 (≈ 25.3 µM) |  |  | 
N#Cc1cnc2ccc([N+](=O)[O-])cc2c1Nc1ccc(F)c(F)c1 [Example 156, 4-[(3,4-Difluorophenyl)amino]-6-nitro-3-quinolinecarbonitrile] | 3.77 (≈ 11.6 µM) | 7.91 (≈ 24.2 µM) | 7.43 (≈ 22.8 µM) | > 100000 | 67 (≈ 205 µM) | 7.57 (≈ 23.2 µM) | 500 |  | 
N#Cc1cnc2ccc(N)cc2c1Nc1ccc(Sc2ccccc2)c(Cl)c1 [Example 158, 6-Amino-4-[(3-chloro-4-thiophenoxyphenyl)amino]-3-quinolinecarbonitrile] | 2.97 (≈ 7.37 µM) | 4.08 (≈ 10.1 µM) | 0.8 (≈ 1.99 µM) |  | 2.44 (≈ 6.06 µM) | 5.44 (≈ 13.5 µM) |  |  | 
N#Cc1cccc(Nc2c(C#N)cnc3ccc(N)cc23)c1 [Example 162, 6-Amino-4-[(3-cyanophenyl)amino]-3-quinolinecarbonitrile] | 6.87 (≈ 24.1 µM) | 33.5 (≈ 118 µM) | 7.15 (≈ 25.1 µM) | 35000 | 8.13 (≈ 28.5 µM) | 16.4 (≈ 57.3 µM) |  |  | 
N#Cc1cccc(Nc2c(C#N)cnc3ccc([N+](=O)[O-])cc23)c1 [Example 163, 4-[(3-Cyanophenyl)amino]-6-nitro-3-quinolinecarbonitrile] | 7.02 (≈ 22.3 µM) | 47.3 (≈ 150 µM) | 7.28 (≈ 23.1 µM) | > 100000 | 64.2 (≈ 204 µM) | 17.4 (≈ 55.3 µM) |  |  | 
C#Cc1cccc(Nc2c(C#N)cnc3ccc(NC(=O)C#CC)cc23)c1 [Example 164, N-{3-Cyano-4-[(3-ethynylphenyl)amino]-6-quinolinyl}-2-butynamide] | 0.6 (≈ 1.71 µM) |  | 0.7 (≈ 2 µM) | > 100000 | 0.9 (≈ 2.57 µM) | 57 (≈ 163 µM) | 90 | 0.322 (≈ 0.919 µM) | 0.684 (≈ 1.95 µM)
C#Cc1cccc(Nc2c(C#N)cnc3ccc(NC(=O)C=C)cc23)c1 [Example 165, N-{3-Cyano-4-[(3-ethynyphenyl)amino]-6-quinolinyl)-2-propenamide] | 0.2 (≈ 0.591 µM) | 3 (≈ 8.87 µM) | 0.1 (≈ 0.296 µM) | > 100000 | 0.8 (≈ 2.36 µM) | 5.8 (≈ 17.1 µM) | 0.5 |  | 
